Results from patent US20020035131A1, “Regimen and kit for amelioration of premature ejaculation” (Pentech Pharmaceuticals, Inc., priority 1999, published 2002).
Several values for one entry are separate records, joined by “and”; a condition that tells them apart may be missing. Equal entries are not always repeated.

Key:
[1] = test system: normally potent male patients suffering from premature ejaculation; assay: Example 2: incidence of adverse effects; assay type: in vivo, human
[2] = test system: healthy men with a diagnosis of premature ejaculation (PE); assay: Example 4: double-blind, randomized, parallel safety and efficacy study, 6, 9 and 12 mg capsules; assay type: in vivo, human; details: for Time to Ejaculate, Mean Time (minutes), Reported By Partner / Time to Ejaculate, Range (minutes), Reported By Partner / Time to Ejaculate, Mean Time (minutes), Reported By Patient / Time to Ejaculate, Range (minutes), Reported By Patient: after 6 weeks treatment, baseline latency ≦ 2 minutes, preliminary data; for Time to Ejaculate, Mean Time (minutes), Reported By Partner / Time to Ejaculate, Range (minutes), Reported By Partner: n 23; for Reason for Early Termination: AE (Adverse Experience), patients: 6, 9 and 12 mg capsules combined
Description: A double-blind, randomized, parallel safety and efficacy study was conducted at six clinical sites, A-F. […] The study consisted of a screening period, baseline period, and two treatment periods. The patients who completed the study participated for about nine weeks. The patients selected were healthy men between the ages of 21 and 65 years with a diagnosis of premature ejaculation (PE). Patients who met the selection criteria provided a medical history and submitted to psychosexual and physical examinations at screening. The efficacy of the paroxetine capsules was assessed at each visit. Safety was assessed by physical examinations and adverse experience (AE) reports, if any, were collected throughout the study. A post-treatment physical assessment was performed at the final visit. Qualified patients who were admitted to this study were assigned an identification number in sequential order by enrollment. […] There were a total of about eighteen patients per dose/per site. […] The capsule was to be taken one hour after breakfast or within two hours of awakening.

[3] = test system: central β-adrenergic receptors; details: unlike sertraline; cited from earlier work
[4] = cited from earlier work
[5] = test system: normally potent male patients suffering from premature ejaculation; assay: Example 1 prospective study: ejaculatory latency time (ELT) and frequency of intercourse, dose conversion and continual maintenance regimens; assay type: in vivo, human; details: for mean ELT after treatment: from a mean ELT of less than one minute
Description: The term “premature ejaculation” as used herein refers to ejaculation that occurs within 60 seconds of vaginal intromission. […] The patients were selected on the basis of a having baseline pretreatment ejaculation latency time (“ELT”) of less than about two minutes. An ELT of less than one minute was regarded as severe premature ejaculation dysfunction. In contrast, the average ELT of a normally potent person is about three to about four minutes. The baseline ELT of the patient was determined as the mean of measurements at a minimum of two acts of sexual intercourse prior to commencing treatment using a stopwatch operated by the patient. […] The term “acute” with respect to the dosing means that the patient ingested an oral dose of paroxetine daily after breakfast or lunch for a period of at least one week. The patients were supplied with an ejaculation diary and were asked to record their frequency of coitus, quality of erection and orgasm, and to record their ELT using a stopwatch. The patients were required to attempt coitus on at least two occasions each week at home. In some trials, the patient's partner was also instructed on the use of the stopwatch and asked to record their recollection of the timing of the patient's ejaculation. […] All patients in the study group were heterosexual, had no other sexual disorders and were either married or in a stable relationship. […] The mean age of the 94 patients was 39 years (range 18-61 years). […] Vital signs, such as heart rate, blood pressure and the like were also monitored by the Registered Nurse. […] Of the group, 55 men (59%) had lifelong premature ejaculation, with the remaining 39 men (41%) describing acquired premature ejaculation with previous acceptable ejaculatory control. Of the 55 men with lifelong premature ejaculation, 10 men (18%) had severe lifelong premature ejaculation and had never achieved intravaginal ejaculation. The patients in the study were enrolled into two groups, Group A and Group B. […] Each patient was supplied with an ejaculation diary and instructed to record their frequency of coitus, quality of erection and orgasm, and to measure and record their ejaculatory latency time using a stop-watch. The patients were required to attempt coitus on at least two occasions each week. Statistical analysis: A Student's t-test was used to compare the mean ELT values before and after treatment with paroxetine for each of Groups A and B.

[6] = Study Group 2, Daily Paroxetine (10 mg)
[7] = Study Group 2, Daily Paroxetine (10 mg), 42 patients
[8] = Study Group 2, Daily Paroxetine (10 mg), 42 patients, listed as Paroxetine
[9] = Group A-Phase 2: 20 mg continual maintenance dose 3-4 hours prior to intercourse, further four weeks after Phase 1, 53 men
[10] = Group A-Phase 2: 20 mg continual maintenance, the 36/53 patients
[11] = Group B: 20 mg continual maintenance dose only, 3-4 hours prior to intercourse, four weeks, 33 men
[12] = Group B: solely 20 mg continual maintenance, the 14/33 responders
[13] = Group B: solely 20 mg continual maintenance, the 19/33 non-responders

In the case of Fc1ccc([C@@H]2CCNC[C@H]2COc2ccc3c(c2)OCO3)cc1 (relative stereo) [paroxetine, trans-(−)-3-(1,3-benzodioxol-5-yloxy)methyl-4-(4-fluorophenyl) piperidine], the “patients reporting any adverse effects” value ([1]; Study Group 1, continual maintenance use of paroxetine (20 mg)) is reported as “None”, the “Adverse effects: Total Patients (fraction)” value [1, 6] is reported as 7/42 and the “Adverse effects: Total Patients (percent)” value [1, 6] is reported as 17%. For the same molecule, the “Adverse effect: Anejaculation (patients)” value [1, 7] was “Three”, the “Adverse effect: Anorexia (patients)” value [1, 7] was 1 and the “Adverse effect: Gastrointestinal upset (patients)” value [1, 7] was 3. The “Adverse effect: Reduced Libido (patients)” value [1, 7] was “Two”, the “Adverse effect: Anejaculation (patients)” value [1, 8] was 3 and the “Adverse effect: Reduced Libido (patients)” value [1, 8] was 2. For the same molecule, the “return of ejaculation after withdrawal of the drug” value ([1]; Study Group 2, patients with anejaculation on daily paroxetine) was 2 to 10 days, the “Time to Ejaculate, Mean Time (minutes), Reported By Partner” value ([2]; 6 mg capsule daily) was 2.6 min and the “Time to Ejaculate, Range (minutes), Reported By Partner” value ([2]; 6 mg capsule daily) was 0.4 to 15 min. For the same molecule, the “Time to Ejaculate, Mean Time (minutes), Reported By Patient” value ([2]; 6 mg capsule daily, n 25) was 2.4 min, the “Time to Ejaculate, Range (minutes), Reported By Patient” value ([2]; 6 mg capsule daily, n 25) was 0.03 to 16 min and the “Time to Ejaculate, Mean Time (minutes), Reported By Partner” value ([2]; 9 mg capsule daily) was 2.3 min. The “Time to Ejaculate, Range (minutes), Reported By Partner” value ([2]; 9 mg capsule daily) was 0.03 to 10 min, the “Time to Ejaculate, Mean Time (minutes), Reported By Patient” value ([2]; 9 mg capsule daily, n 25) was 2.4 min and the “Time to Ejaculate, Range (minutes), Reported By Patient” value ([2]; 9 mg capsule daily, n 25) was 0.03 to 12.5 min. The “Time to Ejaculate, Mean Time (minutes), Reported By Partner” value ([2]; 12 mg capsule daily) was 3.5 min, the “Time to Ejaculate, Range (minutes), Reported By Partner” value ([2]; 12 mg capsule daily) was 0.12 to 30 min and the “Time to Ejaculate, Mean Time (minutes), Reported By Patient” value ([2]; 12 mg capsule daily, n 24) was 2.4 min. The “Time to Ejaculate, Range (minutes), Reported By Patient” value ([2]; 12 mg capsule daily, n 24) was 0.25 to 10 min, the “Reason for Early Termination: AE (Adverse Experience), patients” value (“Reason for Early Termination: AE” for short) ([2]; Clinical Site A, 10 enrolled) was 0 and the “Reason for Early Termination: AE” value ([2]; Clinical Site B, 16 enrolled) was 3. For the same molecule, the “Reason for Early Termination: AE” value ([2]; Clinical Site C, 34 enrolled) was 1, the “Reason for Early Termination: AE” value ([2]; Clinical Site D, 6 enrolled) was 1 and the “Reason for Early Termination: AE” value ([2]; Clinical Site E, 22 enrolled) was 1. The “Reason for Early Termination: AE” value ([2]; Clinical Site F, 19 enrolled) was 2, the “Reason for Early Termination: AE” value ([2]; TOTALS of sites A-F, 107 enrolled) was 8 and the “affinity for central β-adrenergic receptors” value [3] was “little affinity”. For the same molecule, the “time to steady state systemic levels” value ([4]; occurring after about) was 7 to 14 days, the half life ([4]; reportedly) was 24 h and the “time to peak plasma levels” value ([4]; usually achieved within about) was 2 to 8 h. The “patients who achieved and maintained improved ejaculatory control” value ([5]; Group A overall (36/61): four weeks daily 20 mg followed by conversion to continual maintenance) was 59%, the “mean Frequency Intercourse Times/Week” value ([5]; Group A-Phase 1: 20 mg acute dose daily for four weeks, 61 men) was 2.4 Times/Week and the “mean ELT” value ([5]; Group A-Phase 1: 20 mg acute dose daily, at four weeks, 61 men) was 4.5 min. The “patients who regarded their ejaculatory control as significantly improved” value ([5]; Group A-Phase 1: 20 mg daily for four weeks, 53 of 61 patients) was 87%, the “ELT of patients with improved ejaculatory control” value ([5]; Group A-Phase 1: 20 mg daily, after four weeks, the 53/61 responders) was 5.1 min and the “mean ELT” value ([5]; Group A-Phase 1: 20 mg daily, after one week of treatment) was 1.1 min. The “mean ELT” value ([5]; Group A-Phase 1: 20 mg daily, after two weeks) was 1.6 min, the “mean ELT of patients without improved control” value ([5]; Group A-Phase 1: 20 mg daily, at four weeks, the 8/61 non-responders) was 0.6 min and the “mean ELT” value ([5]; Group A-Phase 1: 20 mg daily, at three weeks) was 3.5 min. The “frequency of sexual intercourse acts of patients without improved control” value ([5]; Group A-Phase 1: 20 mg daily, the 8/61 non-responders) was 1.7 times/week, the “frequency of sexual intercourse acts of patients with improved ejaculatory control” value ([5]; Group A-Phase 1: 20 mg daily, the 53/61 responders) was 2.5 times/week and the “mean ELT” value [5, 9] was 3.9 min. The “mean Frequency Intercourse Times/Week” value [5, 9] was 2.6 Times/Week, the “mean ELT of patients who failed to maintain improved control” value ([5]; Group A-Phase 2: 20 mg continual maintenance, at four weeks, the 16/53 men) was 0.6 min and the “frequency of acts of sexual intercourse/week of patients who failed to maintain improved control” value ([5]; Group A-Phase 2: 20 mg continual maintenance, the 16/53 men) was 2.8 acts of sexual intercourse/week. For the same molecule, the “frequency of acts of sexual intercourse/week of patients who maintained improved control” value [5, 10] was 2.4 acts of sexual intercourse/week, the “mean ELT of patients who maintained improved ejaculatory control” value [5, 10] was 5.5 min and the “patients who failed to maintain improved ejaculatory control (recurrence of premature ejaculation)” value ([5]; Group A-Phase 2: after conversion from daily to 20 mg continual maintenance, 16/53) was 31% and 32%. The “patients who maintained improved ejaculatory control” value ([5]; Group A-Phase 2: four weeks 20 mg continual maintenance after four weeks daily, 36/53) was 69% and 68%, the “mean ELT” value [5, 11] was 1.5 min and the “mean Frequency Intercourse Times/Week” value [5, 11] was 2.2 Times/Week. For the same molecule, the “patients who regarded their ejaculatory control as significantly improved (fraction of patients)” value ([5]; Group B: solely 20 mg continual maintenance) was 14/33, the “patients who achieved ejaculatory control” value ([5]; Group B: solely 20 mg continual maintenance, 14 of 33) was 42% and the “frequency of acts of sexual intercourse/week of patients with improved control” value [5, 12] was 2.4 acts of sexual intercourse/week. The “mean ELT of patients with improved ejaculatory control” value [5, 12] was 2.7 min, the “frequency of acts of intercourse/week of patients with no change in ejaculatory control” value [5, 13] was “two” and the “mean ELT of patients with no change in ejaculatory control” value [5, 13] was 0.4 min. The “mean ELT after treatment” value ([5]; four weeks initial loading and four weeks continual maintenance) was “greater than 2.5 minutes”, the “men achieving intra-vaginal ejaculation for the first time” value ([5]; men with severe lifelong premature ejaculation who had never achieved intra-vaginal ejaculation (including four in Group B)) was 10/10 and the “time to improved ejaculatory control after initiating treatment” value ([5]; paroxetine oral therapy regimen) was 1-2 weeks. The “mean ELT after treatment” value ([5]; solely continual maintenance dosage over about four weeks) was “at least 1.5 minutes”.
